“Also recorded” adds a separate entry of the source. Like-named read-outs stand apart in the source and are kept apart here.
Assays:
5HT2B receptors = biological target: T1, 5HT2B receptors (Homo sapiens, UniProt P41595); experiment: Human 5-HT2B functional assay in CHO-K1 cells (calcium flux, FLIPR); type: cell-based; settings: for Emax: CHO-K1 cells, percentage relative to the effect of serotonin, read-out: Emax (%), 5-HT2B Agonist Activity
T1 construct: expressed in transfected cells; host or cells: CHO-K1 cells
T1 sequence (P41595 whole entry): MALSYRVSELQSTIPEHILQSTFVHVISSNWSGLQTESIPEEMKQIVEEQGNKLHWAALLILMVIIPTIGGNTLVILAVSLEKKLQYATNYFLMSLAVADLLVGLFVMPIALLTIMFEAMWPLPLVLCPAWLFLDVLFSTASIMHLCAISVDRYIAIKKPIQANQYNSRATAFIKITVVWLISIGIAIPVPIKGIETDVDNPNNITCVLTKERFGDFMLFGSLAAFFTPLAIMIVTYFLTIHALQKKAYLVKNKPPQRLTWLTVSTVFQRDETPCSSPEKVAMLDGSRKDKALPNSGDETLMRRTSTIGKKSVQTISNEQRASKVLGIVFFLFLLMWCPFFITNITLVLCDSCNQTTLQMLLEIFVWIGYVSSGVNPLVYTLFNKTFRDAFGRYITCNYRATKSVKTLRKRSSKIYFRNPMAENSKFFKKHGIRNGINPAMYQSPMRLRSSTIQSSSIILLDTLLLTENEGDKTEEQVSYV
In short: (§1)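 Frozen CHO-K1 cells over-expressing receptor, serum-starved overnight, loaded with Ca4 dye plus 2.5 mM probenecid for 60 min at room temperature. FLIPR fluorescence (ex 480/em 530 nm, 25° C) recorded 3 min after compound addition; 6-point 1:10 series from 10 μM, 0.2% DMSO. Response normalized to serotonin, 4-parameter fit gives EC50; Emax as % of serotonin.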

[1] = test system: AMP-induced hyperactivity; experiment: d-Amphetamine-induced hyperlocomotion in mice; type: in vivo
Description: (v) Assessment of Effects on Psychostimulant-Induced Hyperlocomotion in Mice
In both humans and experimental animals amphetamine profoundly affects motor activity, sensorimotor function, sleep, attention, aggressive and sexual behaviors, learning and memory, operant behaviors, appetite and food intake. In addition, amphetamine induces psychotic reactions in normal individuals and exacerbates symptoms of schizophrenia in patients. In experimental animals several distinct behaviors are considered to be correlates of amphetamine psychosis. For example, amphetamine-induced hyperactivity in rodents is believed to model the psychotic symptoms of schizophrenia. Reversal of these behaviors is used to predict potential antipsychotic activity of drugs in pre-clinical studies.
Male NMRI mice (5-week old, Janvier, France) or C57BL/6J mice (6-week old, Janvier, France) were group housed and allowed ad-libitum access to food and water. A 12 hour light/dark cycle was imposed with lights-on period between 0530 and 1730 hours. All testing occurred between 700 and 1300 hours. All procedures were approved by Abbott Institutional Animal Care and Use Committee (USA) or Animal Welfare Officer (Germany) and were conducted in accordance with the National Institutes of Health Guide for Care and Use of Laboratory Animals guidelines and applicable national laws in the facilities accredited by the Association for the Assessment and Accreditation of Laboratory Animal Care.
On the day of experiment, animals were brought from the animal facility into the experimental room and were allowed to acclimatize for at least 30 minutes. Animals were then placed in the test cages for a habituation period of 60 minutes. The animals were then injected ip with the test compound and returned to the test cage. 30 Minutes later, the mice were injected with d-amphetamine (2.0 mg/kg, AMP, Sigma, #A5880, sc) or phencyclidine (2.0 mg/kg, PCP, Sigma, #P3029, sc), and returned to the test cages for 90 minutes. […] The analyzed data were: fine movements, ambulations and total movements (fine+ambulations). […]

5HT2C receptors [2] = biological target: T2, 5HT2C receptors (Homo sapiens, UniProt P28335); experiment: Human 5-HT2C functional assay in CHO-K1 cells (calcium flux, FLIPR); type: cell-based; design: expressed in transfected cells; host or cells: CHO-K1 cells; settings: for Emax: percentage relative to the effect of serotonin
T2 sequence (P28335 33-458): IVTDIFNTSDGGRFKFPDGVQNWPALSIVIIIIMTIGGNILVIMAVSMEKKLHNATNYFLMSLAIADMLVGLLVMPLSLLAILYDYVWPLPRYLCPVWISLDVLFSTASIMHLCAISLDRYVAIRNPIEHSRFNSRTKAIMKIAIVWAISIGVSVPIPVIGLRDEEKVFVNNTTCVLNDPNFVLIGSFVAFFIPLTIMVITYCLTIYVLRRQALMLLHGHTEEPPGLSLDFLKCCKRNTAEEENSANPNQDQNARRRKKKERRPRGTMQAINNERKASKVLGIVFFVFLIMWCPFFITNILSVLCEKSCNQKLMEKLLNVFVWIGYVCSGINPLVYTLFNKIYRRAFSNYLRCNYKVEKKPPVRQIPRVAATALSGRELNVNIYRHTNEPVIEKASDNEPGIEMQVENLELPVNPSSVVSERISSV
In short: as §1

[3] = biological target: T3, human serotonin 5-HT2c receptor (Homo sapiens, UniProt P28335); experiment: Human 5-HT2C receptor radioligand binding assay (agonist site, [125I](±)DOI); settings: membranes of transfected CHO cells, 0.2 nM [125I](±)DOI, 15 minutes at 37° C.
T3 construct: expressed in transfected cells; host or cells: CHO cells (membrane homogenate)
T3 sequence (P28335 33-458): T2 sequence (P28335 33-458)
In short: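 Affinity for the agonist site measured by radioligand binding in transfected CHO cells expressing the human receptor, using [125I](±)DOI.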

5HT2C receptors [4] = biological target: T2, 5HT2C receptors; experiment: Human 5-HT2C functional assay in 1321N1 cells (intracellular calcium, FLIPR); type: cell-based; design: expressed in transfected cells; host or cells: 1321N1 cells; settings: for EC50: 1321N1 cells stably transfected, maximum calcium response, read-out: EC50 (μM), 5-HT2c Agonist Activity
In short: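 Intracellular calcium in 1321N1 cells stably transfected with human 5-HT2C, serum-starved overnight, Fluo4 AM-loaded with 1% probenecid. Compounds at 10^−10 to 10^−5 M final, alone or with 10^−9 M serotonin; peak FLIPR response. EC50 from four-parameter logistic fit; Emax as % of serotonin effect.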

h-5-HT6 receptor = biological target: T4, h-5-HT6 receptor (Homo sapiens, UniProt P50406); experiment: Human 5-HT6 receptor radioligand binding assay ([3H]-LSD, HEK293 membranes)
T4 construct: expressed in transfected cells; host or cells: HEK293 cells (membrane preparation)
T4 sequence (P50406 whole entry): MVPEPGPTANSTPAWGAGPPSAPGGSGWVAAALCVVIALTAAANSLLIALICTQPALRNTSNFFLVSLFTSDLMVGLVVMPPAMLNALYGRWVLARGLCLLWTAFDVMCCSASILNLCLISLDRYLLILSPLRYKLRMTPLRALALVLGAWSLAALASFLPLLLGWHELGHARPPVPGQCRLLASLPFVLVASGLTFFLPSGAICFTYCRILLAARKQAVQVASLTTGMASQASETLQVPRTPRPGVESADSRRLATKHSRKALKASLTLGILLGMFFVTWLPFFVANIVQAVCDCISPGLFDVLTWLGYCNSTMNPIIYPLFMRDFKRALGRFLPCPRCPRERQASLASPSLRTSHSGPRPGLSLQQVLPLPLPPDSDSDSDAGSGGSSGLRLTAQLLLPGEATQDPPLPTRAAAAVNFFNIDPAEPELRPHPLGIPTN
Description: (iv) Human 5-HT6 Receptor Radioligand Binding Assay
Preparation of Membranes by Ultrasonic Treatment and Differential Centrifugation
Cells from stable clonal cell lines expressing the corresponding receptor (5-HT6) were washed with PBS (without Ca^++, Mg^++) and harvested in PBS with 0.02% EDTA. The cells were collected by centrifugation at 500 g for 10 minutes at 4° C., washed with PBS and centrifuged (500 g, 10 minutes at 4° C.). The pellets were stored at −80° C. until use. For membrane preparation, the thawed cell pellet was resuspended in ice-cold sucrose buffer (0.25 M sucrose, 10 mM HEPES (pH 7.4), 1 mM phenylmethylsulfonyl fluoride (PMSF) in DMSO, 5 μg/ml Pepstatin-A, 3 mM EDTA, 0.025% Bacitracin) and homogenized with a Branson Sonifier W-250 (Settings: Timer 4; Output Control 3; Duty Cycle constant; 2 to 3 cycles). Cell disruption was checked with the aid of a microscope. Remaining unbroken cells were pelleted at 1,000 g for 10 minutes at 4° C. The sucrose buffer supernatant was then centrifuged at 60,000 g for 1 hour at 4° C. (Beckman Ultrazentrifuge XL 80). The pellet was resuspended in 30 mL of ice-cold Tris buffer (20 mM TRIS (pH 7.4), 5 μg/mL Pepstatin A, 0.1 mM PMSF, 3 mM EDTA) by pipetting through a 10 mL serological pipet and centrifuged for 1 hour at 4° C. at 60,000 g. A final resuspension was performed in a small volume of ice-cold Tris buffer (see above) by pressing through a serological pipet followed by ultrasonic treatment with a Branson Sonifier W-250 (Settings: Timer 1; Output Control 3; Duty Cycle constant; 1 cycle). Protein concentration was determined (BCA-Kit; Pierce) and aliquots stored at −80° C. or in liquid nitrogen for long-term storage.
Receptor Binding Experiments
All receptor binding experiments were carried out in the corresponding assay buffer in a total volume of 200 μL in the presence of various concentrations of test compound (10^−5 M to 10^−9 M, tenfold serial dilution, duplicate determinations). The assays were terminated by filtration on polyethylenimine (PEI 0.1% or 0.3%) presoaked Packard Unifilter Plates (GF/C or GF/B) with a Tomtec MachIII U 96 well-plate harvester. After the plates had been dried for 2 hours at 55° C. in a drying chamber scintillation cocktail (BetaPlate Scint; PerkinElmer) was added. Radioactivity was measured in a Microbeta Trilux two hours after the addition of the scintillation mixture.
5-HT6 Receptor Binding Assay
HEK293 cells stably expressing the h-5-HT6 receptor (NCBI Reference Sequence XM 001435) were cultured in RPMI1640 medium supplemented with 25 mM HEPES, 10% fetal calf serum and 1-2 mM glutamine. The membrane preparation was performed as described above. […] On the day of the assay, the membranes were thawed, diluted in assay buffer (50 mM Tris-HCl, 5 mM CaCl2, 0.1% ascorbic acid, 10 μM pargyline, pH 7.4) to a concentration of 8 μg protein/assay and homogenized by gentle vortexing. […] Non-specific binding was defined with 1 μM methiothepin. The binding reaction was carried out for 3.5 hours at room temperature. During the incubation, the plates were shaken on a plate shaker at 100 rpm and terminated by filtration on Packard Unifilter GF/C (0.1% PEI) plates, followed by 2 wash cycles with ice-cold 50 mM Tris-HCl, 5 mM CaCl2.
Data derived from liquid scintillation counting were analyzed by iterative non-linear regression analysis with the use of the Statistical Analysis System (SAS): a program similar to “LIGAND” as described by Munson and Rodbard (Anal. Biochem. 1980, 107, 220-239). Fitting was performed according to formulae described by Feldman (Anal. Biochem. 1972, 48, 317-338). IC50, nH and Ki values were expressed as geometrical mean.
The results of the receptor binding studies are expressed as receptor binding constants Ki(5-HT6) as described herein before, and given in Table 5.

spontaneous activity = experiment: Spontaneous activity in mice; type: in vivo; settings: vehicle or a dose of test compound, FIG. 2b, FIG. 3b
[5] = CHO-K1 cells over-expressing 5HT2B, calcium flux, read-out: EC50 (μM), 5-HT2B Agonist Activity
[6] = CHO-K1 cells over-expressing 5HT2C, calcium flux, read-out: EC50 (μM), 5-HT2c Agonist Activity
[7] = CHO-K1 cells, read-out: Emax (%), 5-HT2c Agonist Activity
[8] = HEK293 membranes, 1 nM [3H]-lysergic acid diethylamide, 3.5 hours at room temperature, read-out: Ki (μM), 5-HT6 Agonist Site Radioligand Binding
[9] = CHO-K1, read-out: Emax (%), 5-HT2c Agonist Activity, CHO-K1 cells

SMILES	EC50 (5HT2B receptors; [5]) [µM]	EC50 (5HT2C receptors [2]; [6]) [µM]	Ki (h-5-HT6 receptor; [8]) [µM]	EC50 (5HT2B receptors) [µM]	EC50 (5HT2C receptors [2]) [µM]	Emax (5HT2C receptors [2]; [9]) [%]	other results
O=C1C[C@H]2CNCCN2c2cc(CCc3ccccc3)ccc2N1 [Example 42, (4aS)-10-(2-phenylethyl)-1,2,3,4,4a,5-hexahydropyrazino[1,2-a][1,5]benzodiazepin-6(7H)-one]	5	0.0004					Emax (5HT2B receptors): 55%; AMP-induced hyperactivity ([1]; test compound ip 30 minutes before d-amphetamine 2.0 mg/kg sc, FIG. 1): attenuated AMP-induced hyperactivity significantly and in a dose dependent manner; also recorded: concentration-dependent effects of Example 42 attenuating the affect of d-amphetamine; Emax (5HT2C receptors [2]; [7]): > 120%; Ki [3]: 0.00071 µM; EC50 (5HT2C receptors [4]): 0.0011 µM; Emax (5HT2C receptors [4]; 1321N1 cells, percentage relative to the effect of serotonin, read-out: Emax (%), 5-HT2c Agonist Activity): 95%
c1ccc2c(c1)OCC[C@H]1CNCCN21 [Example 169, (4aS)-2,3,4,4a,5,6-hexahydro-1H-pyrazino[2,1-d][1,5]benzoxazepine]				> 10	0.001	> 120	AMP-induced hyperactivity ([1]; 10 and 30 mg/kg ip before d-amphetamine 2.0 mg/kg sc, FIG. 3a): attenuated AMP-induced hyperactivity significantly and in a dose dependent manner; also recorded: concentration-dependent effects of Example 169 attenuating the affect of d-amphetamine; spontaneous activity (total activity counts) (spontaneous activity): no effects; also recorded: No change in spontaneous activity regardless of dose
Cc1cccc2c1OCC[C@H]1CNCCN21 [Example 226, (4aS)-8-methyl-2,3,4,4a,5,6-hexahydro-1H-pyrazino[2,1-d][1,5]benzoxazepine]				> 10	0.0008	90	Ki (h-5-HT6 receptor): 2.06 µM
CN1CCN2c3cccc(F)c3OCC[C@H]2C1 [Example 231, (4aS)-8-fluoro-3-methyl-2,3,4,4a,5,6-hexahydro-1H-pyrazino[2,1-d][1,5]benzoxazepine]				> 10	0.004	85	Ki (h-5-HT6 receptor): 0.855 µM

Further lines, with some results ahead:

EC50 (5HT2B receptors; [5]) [µM]	EC50 (5HT2C receptors [2]; [6]) [µM]	Ki (h-5-HT6 receptor; [8]) [µM]	SMILES	EC50 (5HT2B receptors) [µM]	EC50 (5HT2C receptors [2]) [µM]	Emax (5HT2C receptors [2]; [9]) [%]	other results
		0.821	O=C1NCC2CN(Cc3ccccc3)CCN2c2ccc(NS(=O)(=O)c3ccccc3)cc21 (stereo not drawn) [Example 47, N-(3-benzyl-7-oxo-1,2,3,4,4a,5,6,7-octahydropyrazino[1,2-a][1,4]benzodiazepin-9-yl)benzenesulfonamide]				Ki [3]: 33 µM; EC50 (5HT2C receptors [4]): > 10 µM
0.9	> 10	0.017	O=C1CC2CNCCN2c2ccc(S(=O)(=O)c3ccccc3)cc2N1 (stereo not drawn) [Example 112, 9-(phenylsulfonyl)-1,2,3,4,4a,5-hexahydropyrazino[1,2-a][1,5]benzodiazepin-6(7H)-one]				Emax (5HT2B receptors): 90%
> 10	0.02		CCOc1ccc2c(c1)N1CCNC[C@@H]1CC(=O)N2 [Example 181, (4aS)-10-ethoxy-1,2,3,4,4a,5-hexahydropyrazino[1,2-a][1,5]benzodiazepin-6(7H)-one]				AMP-induced hyperactivity ([1]; 1.0 and 3.0 mg/kg ip before d-amphetamine 2.0 mg/kg sc, FIG. 2a): attenuated AMP-induced hyperactivity significantly and in a dose dependent manner; also recorded: concentration-dependent effects of Example 181 attenuating the affect of d-amphetamine; spontaneous activity (total activity counts) (spontaneous activity): no effects; also recorded: No change in spontaneous activity regardless of dose; Emax (5HT2C receptors [2]; [7]): > 120%
> 10	> 10	0.008	O=C1NCC2CNCCN2c2ccc(NS(=O)(=O)c3cccc(C(F)(F)F)c3)cc21 (stereo not drawn) [Example 184, N-(7-oxo-1,2,3,4,4a,5,6,7-octahydropyrazino[1,2-a][1,4]benzodiazepin-9-yl)-3-(trifluoromethyl)benzenesulfonamide]				
